Measurements from patent US20240041991A1, “STABLE LIQUID DISPERSINB COMPOSITIONS” (KANE BIOTECH INC., priority 2020, published 2024).
Like-named read-outs stand apart in the source and are kept apart here. Marks after values point to notes of the source that are not given here.

How the values were obtained:
DispersinB [1] = format: biochemical, Aggregatibacter actinomycetemcomitans; conditions: for % enzymatic activity of DispersinB (Mean): polyol % as in label; for temperature stabilizing effect on DispersinB at elevated temperatures: 42° C., 52° C., and 62° C.
Protocol: Samples from each formula was incubated at 3 different temperatures (42° C., 52° C. and 62° C.) for 3 hours. Following a 3 hour incubation, the samples were brought to room temperature for enzymatic activity assay.
Two-tailed paired T-test was performed by to compare each polyol containing treatment with the treatment devoid of polyol. Treatment with probability values (p) less than 5% (0.05) was considered significant.

DispersinB [2] = test system: DispersinB
Protocol: DispersinB enzyme (100 μg/ml) solutions in 50 mM citrate buffer and phosphate buffer (pH 5.9), with 100 mM NaCl containing EDTA (0.5%-10%) were tested for DispersinB enzymatic activity following β-N-Acetylglucosaminidase assay.

OCC(O)CO [glycerol, Propane-1,2,3-triol]
% enzymatic activity of DispersinB (Mean) (DispersinB [1]; 4° C., freshly made control without polyol = 100%, listed as Glycerol 1%): 117* %
% enzymatic activity of DispersinB (Mean) (DispersinB [1]; 4° C., freshly made control without polyol = 100%, listed as Glycerol 2.5%): 114* %
% enzymatic activity of DispersinB (Mean) (DispersinB [1]; 4° C., freshly made control without polyol = 100%, listed as Glycerol 5%): 116* %
% enzymatic activity of DispersinB (Mean) (DispersinB [1]; 4° C., freshly made control without polyol = 100%, listed as Glycerol 10%): 124* %
% enzymatic activity of DispersinB (Mean) (DispersinB [1]; 4° C., freshly made control without polyol = 100%, listed as Glycerol 20%): 128* %
% enzymatic activity of DispersinB (Mean) (DispersinB [1]; 4° C., freshly made control without polyol = 100%, listed as Glycerol 30%): 131* %
% enzymatic activity of DispersinB (Mean) (DispersinB [1]; 42° C. for 3 hours, control without polyol = 100%, listed as Glycerol 1%): 94* %
% enzymatic activity of DispersinB (Mean) (DispersinB [1]; 42° C. for 3 hours, control without polyol = 100%, listed as Glycerol 2.5%): 98* %
% enzymatic activity of DispersinB (Mean) (DispersinB [1]; 42° C. for 3 hours, control without polyol = 100%, listed as Glycerol 5%): 90* %
% enzymatic activity of DispersinB (Mean) (DispersinB [1]; 42° C. for 3 hours, control without polyol = 100%, listed as Glycerol 10%): 115* %
% enzymatic activity of DispersinB (Mean) (DispersinB [1]; 42° C. for 3 hours, control without polyol = 100%, listed as Glycerol 20%): 112* %
% enzymatic activity of DispersinB (Mean) (DispersinB [1]; 42° C. for 3 hours, control without polyol = 100%, listed as Glycerol 30%): 116* %
temperature stabilizing effect on DispersinB at elevated temperatures (DispersinB [1]): exhibited temperature stabilizing effect
% enzymatic activity of DispersinB (Mean) (DispersinB [1]; 52° C. for 3 hours, control without polyol = 100%, listed as Glycerol 5%): 16* %
% enzymatic activity of DispersinB (Mean) (DispersinB [1]; 52° C. for 3 hours, control without polyol = 100%, listed as Glycerol 10%): 31* %
% enzymatic activity of DispersinB (Mean) (DispersinB [1]; 52° C. for 3 hours, control without polyol = 100%, listed as Glycerol 20%): 92* %
% enzymatic activity of DispersinB (Mean) (DispersinB [1]; 52° C. for 3 hours, control without polyol = 100%, listed as Glycerol 30%): 93* %

OC[C@@H](O)[C@@H](O[C@H]1O[C@H](CO)[C@@H](O)[C@H](O)[C@H]1O)[C@H](O)[C@@H](O)CO [Maltitol, 4-O-α-D-Glucopyranosyl-D-glucitol]
% enzymatic activity of DispersinB (Mean) (DispersinB [1]; 4° C., freshly made control without polyol = 100%, listed as 1% Maltitol): 102%
% enzymatic activity of DispersinB (Mean) (DispersinB [1]; 4° C., freshly made control without polyol = 100%, listed as 2.5% Maltitol): 99%
% enzymatic activity of DispersinB (Mean) (DispersinB [1]; 4° C., freshly made control without polyol = 100%, listed as 5% Maltitol): 95%
% enzymatic activity of DispersinB (Mean) (DispersinB [1]; 4° C., freshly made control without polyol = 100%, listed as 10% Maltitol): 138* %
% enzymatic activity of DispersinB (Mean) (DispersinB [1]; 4° C., freshly made control without polyol = 100%, listed as 15% Maltitol): 104%
% enzymatic activity of DispersinB (Mean) (DispersinB [1]; 4° C., freshly made control without polyol = 100%, listed as 20% Maltitol): 107%
% enzymatic activity of DispersinB (Mean) (DispersinB [1]; 4° C., freshly made control without polyol = 100%, listed as 25% Maltitol): 102%
% enzymatic activity of DispersinB (Mean) (DispersinB [1]; 42° C. for 3 hours, control without polyol = 100%, listed as 1% Maltitol): 106* %
% enzymatic activity of DispersinB (Mean) (DispersinB [1]; 42° C. for 3 hours, control without polyol = 100%, listed as 2.5% Maltitol): 110* %
% enzymatic activity of DispersinB (Mean) (DispersinB [1]; 42° C. for 3 hours, control without polyol = 100%, listed as 5% Maltitol): 107* %
% enzymatic activity of DispersinB (Mean) (DispersinB [1]; 42° C. for 3 hours, control without polyol = 100%, listed as 10% Maltitol): 143* %
% enzymatic activity of DispersinB (Mean) (DispersinB [1]; 42° C. for 3 hours, control without polyol = 100%, listed as 15% Maltitol): 110* %
% enzymatic activity of DispersinB (Mean) (DispersinB [1]; 42° C. for 3 hours, control without polyol = 100%, listed as 20% Maltitol): 116* %
% enzymatic activity of DispersinB (Mean) (DispersinB [1]; 42° C. for 3 hours, control without polyol = 100%, listed as 25% Maltitol): 129* %
% enzymatic activity of DispersinB (Mean) (DispersinB [1]; 52° C. for 3 hours, control without polyol = 100%, listed as 1% Maltitol): 17* %
% enzymatic activity of DispersinB (Mean) (DispersinB [1]; 52° C. for 3 hours, control without polyol = 100%, listed as 2.5% Maltitol): 24* %
% enzymatic activity of DispersinB (Mean) (DispersinB [1]; 52° C. for 3 hours, control without polyol = 100%, listed as 5% Maltitol): 37* %
% enzymatic activity of DispersinB (Mean) (DispersinB [1]; 52° C. for 3 hours, control without polyol = 100%, listed as 10% Maltitol): 111* %
% enzymatic activity of DispersinB (Mean) (DispersinB [1]; 52° C. for 3 hours, control without polyol = 100%, listed as 15% Maltitol): 102* %
% enzymatic activity of DispersinB (Mean) (DispersinB [1]; 52° C. for 3 hours, control without polyol = 100%, listed as 20% Maltitol): 113* %
% enzymatic activity of DispersinB (Mean) (DispersinB [1]; 52° C. for 3 hours, control without polyol = 100%, listed as 25% Maltitol): 120* %
% enzymatic activity of DispersinB (Mean) (DispersinB [1]; 62° C. for 3 hours, control without polyol = 100%, listed as 1% Maltitol): 0%
% enzymatic activity of DispersinB (Mean) (DispersinB [1]; 62° C. for 3 hours, control without polyol = 100%, listed as 2.5% Maltitol): 0%
% enzymatic activity of DispersinB (Mean) (DispersinB [1]; 62° C. for 3 hours, control without polyol = 100%, listed as 5% Maltitol): 0%
% enzymatic activity of DispersinB (Mean) (DispersinB [1]; 62° C. for 3 hours, control without polyol = 100%, listed as 10% Maltitol): 6* %
% enzymatic activity of DispersinB (Mean) (DispersinB [1]; 62° C. for 3 hours, control without polyol = 100%, listed as 15% Maltitol): 8* %
% enzymatic activity of DispersinB (Mean) (DispersinB [1]; 62° C. for 3 hours, control without polyol = 100%, listed as 20% Maltitol): 7* %
% enzymatic activity of DispersinB (Mean) (DispersinB [1]; 62° C. for 3 hours, control without polyol = 100%, listed as 25% Maltitol): 5* %

O=C(O)CN(CCN(CC(=O)O)CC(=O)O)CC(=O)O [EDTA, Ethylenediaminetetraacetic acid]
% Activity (DispersinB [2]; Citrate buffer pH 5.9, 100 mM NaCl, EDTA 0 mg/ml): 100.00%
% Activity (DispersinB [2]; Citrate buffer pH 5.9, 100 mM NaCl, EDTA 0.5 mg/ml): 101.45%
% Activity (DispersinB [2]; Citrate buffer pH 5.9, 100 mM NaCl, EDTA 1 mg/ml): 95.86%
% Activity (DispersinB [2]; Citrate buffer pH 5.9, 100 mM NaCl, EDTA 2.5 mg/ml): 104.19%
% Activity (DispersinB [2]; Citrate buffer pH 5.9, 100 mM NaCl, EDTA 9.4 mg/ml): 83.18%
% Activity (DispersinB [2]; Phosphate buffer pH 5.9, 100 mM NaCl, EDTA 0 mg/ml): 100.00%
% Activity (DispersinB [2]; Phosphate buffer pH 5.9, 100 mM NaCl, EDTA 0.5 mg/ml): 102.52%
% Activity (DispersinB [2]; Phosphate buffer pH 5.9, 100 mM NaCl, EDTA 1 mg/ml): 99.78%
% Activity (DispersinB [2]; Phosphate buffer pH 5.9, 100 mM NaCl, EDTA 2.5 mg/ml): 91.13%
% Activity (DispersinB [2]; Phosphate buffer pH 5.9, 100 mM NaCl, EDTA 9.4 mg/ml): 66.51%
concentrations of EDTA that tend to reduce the enzyme activity (DispersinB [2]; citrate buffer): greater than 2.5 mg/ml
concentrations of EDTA that tend to reduce the enzyme activity (DispersinB [2]; phosphate buffer): greater than 1 mg/ml

OC[C@@H](O)[C@@H](O)[C@H](O)[C@H](O)CO [Mannitol]
% enzymatic activity of DispersinB (Mean) (DispersinB [1]; 4° C., freshly made control without polyol = 100%, listed as 1% Mannitol): 98%
% enzymatic activity of DispersinB (Mean) (DispersinB [1]; 4° C., freshly made control without polyol = 100%, listed as 2.5% Mannitol): 100%
% enzymatic activity of DispersinB (Mean) (DispersinB [1]; 4° C., freshly made control without polyol = 100%, listed as 5% Mannitol): 98%
% enzymatic activity of DispersinB (Mean) (DispersinB [1]; 4° C., freshly made control without polyol = 100%, listed as 10% Mannitol): 102%
% enzymatic activity of DispersinB (Mean) (DispersinB [1]; 4° C., freshly made control without polyol = 100%, listed as 12% Mannitol): 97%
% enzymatic activity of DispersinB (Mean) (DispersinB [1]; 42° C. for 3 hours, control without polyol = 100%, listed as 1% Mannitol): 77%
% enzymatic activity of DispersinB (Mean) (DispersinB [1]; 42° C. for 3 hours, control without polyol = 100%, listed as 2.5% Mannitol): 87* %
% enzymatic activity of DispersinB (Mean) (DispersinB [1]; 42° C. for 3 hours, control without polyol = 100%, listed as 5% Mannitol): 88* %
% enzymatic activity of DispersinB (Mean) (DispersinB [1]; 42° C. for 3 hours, control without polyol = 100%, listed as 10% Mannitol): 87* %
% enzymatic activity of DispersinB (Mean) (DispersinB [1]; 42° C. for 3 hours, control without polyol = 100%, listed as 12% Mannitol): 86* %
temperature stabilizing effect on DispersinB at elevated temperatures (DispersinB [1]): did not exhibit temperature stabilizing effects
% enzymatic activity of DispersinB (Mean) (DispersinB [1]; 52° C. for 3 hours, control without polyol = 100%, listed as 5% Mannitol): 1* %
% enzymatic activity of DispersinB (Mean) (DispersinB [1]; 52° C. for 3 hours, control without polyol = 100%, listed as 10% Mannitol): 14* %
% enzymatic activity of DispersinB (Mean) (DispersinB [1]; 52° C. for 3 hours, control without polyol = 100%, listed as 12% Mannitol): 53* %
